Where two headings read alike, the source gives them in different places.
Assays:
[1] = Pharmacokinetics of CEM87 in mice; conditions: mouse, in vivo
Procedure: Pharmacokinetic Data of CEM87 in Mice: Initial and encouraging pharmacokinetics (PK) analysis of CEM87 were conducted. Mice were administered a single 3 mg/kg dose of CEM87 via intravenous (IV) injection or a single dose of 30 mg/kg of CEM87 through the intraperitoneal (IP) route (n=9 per group, 3 mice per time point).

[2] = test system: AAV2-BD-JET-GFP genomes in 293-ZF-FKBP cells; assay: CEM activation of AAV2-BD-JET-GFP vectors in 293-ZF-FKBP cells, GFP fluorescence by flow cytometry; format: cell-based, human; conditions: AAV vectors without the engrafted ZF BD, or AAV2-BD-JET-GFP in WT 293 cells
Procedure: It was then examined whether CEM87 can control recombinant AAV transgene expression in transduced cells. HEK293T.17 cells that stably expresses ZF-FKBP were transduced with an AAV2 vector that contains a zinc finger DNA binding domain recognition sequence specific to the array in ZF-FKBP upstream of a JET promoter and an eGPF reporter gene downstream of the promoter. After 24 h the cell media was replaced with media containing either 200 nM CEM87 or a DMSO control. 48 hours post CEM87 addition, cells were imaged and flow cytometry run to determine the percent eGFP expression.
Some of these experiments relied on a 293 cell line harboring a stable constitutive ZF-FKBP cassette (293-ZF-FKBP) and transduction by AAV2-JET-GFP vectors harboring the ZF binding domain recognition sequence (BD) upstream of the constitutive JET promoter (FIG. 5). Two chemicals were investigated in these initial studies, CEM87 and CEM114 which bind ZF-FKBP and act to recruit BRD4 or CBP/p300, respectively. […] Following the transduction of AAV2-BD-Jet-GFP vectors to 293-ZF-FKBP cells, increasing concentrations of CEMs (87 or 114) were added to the culture medium. Two days later, GFP fluorescence was analyzed by flow cytometry.

[3] = test system: transgene (firefly luciferase) expression in HEK293T.17 cells; assay: ZF-CEM technology AAV transgene expression, Promega Dual Luciferase Assay in HEK293T.17 cells; format: cell-based, human
Procedure: At a higher viral genomes per cell dose of virus, higher fold change in transgene (firefly luciferase) expression was seen. HEK293T.17 cells that stably express Renilla Luciferase (for normalization purposes) were plated at 7.5K cells per well in a 96 well plate. The next day, the cells were infected with ZF-CEM technology virus at either 2K or 20K vg/cell. After 24 hours, the cells were treated with varying concentrations of CEM87. After an additional 48 hours (72 hours post initial AAV infection), a Promega Dual Luciferase Assay was run to determine the levels of luciferase.
At 20K viral genomes per cell, ZF-CEM technology was able to increase the levels of transgene (firefly luciferase) expression in a statistically significant manner as early as 24 hours and continue to have effects up to 96 hours post CEM87 addition (FIG. 16). The highest fold change in luciferase expression was seen 24 hours after CEM87 dosage (48 hours after AAV infection). HEK293T.17 cells that stably express Renilla Luciferase (for normalization purposes) were plated at 7.5K cells per well in a 96 well plate. The next day, the cells were infected with ZF-CEM technology virus at 20K vg/cell. After 24 hours, the cells were treated with 200 nM CEM87. A Promega Dual Luciferase Assay was run every 24 hours post CEM87 dosage to determine the levels of luciferase over time.
At 20K viral genomes per cell, the impact of ZF-CEM technology on transgene expression was reversible through washout or washout with the addition of FK506, a chemical capable of competing off CEM87 from the transgene it is recruited to (FIG. 17). Reversibility was achieved within 24 hours of removal of CEM87 through washout or washout and treatment with 100× more FK506 ([…]). HEK293T.17 cells that stably express Renilla Luciferase (for normalization purposes) were plated at 7.5K cells per well in a 96 well plate. The next day, the cells were infected with ZF-CEM technology virus at 20K vg/cell. After 24 hours, the cells were treated with 200 nM CEM87. After 48 hours, wells were either washed out with fresh media or washed out with fresh media that contained […]. A Promega Dual Luciferase Assay was run every 24 hours post washout/FK506 dosage to determine the levels of luciferase over time.
HEK293T.17 cells that stably express Renilla Luciferase (for normalization purposes) were plated at 7.5K cells per well in a 96 well plate. The next day, the cells were infected with ZF-CEM technology virus at 20K vg/cell. After 24 hours, the cells were treated with 200 nM CEM114. After 48 hours, a Promega Dual Luciferase Assay was run to determine the levels of luciferase.

SMILES	AUC(0-t) ([1]; single 3 mg/kg IV, read-out: exposure (AUC0-24))	half-life ([1]; single 3 mg/kg IV, read-out: half-life (t1/2) (converted))	Cmax ([1]; single 3 mg/kg IV, read-out: maximal concentration (Cmax))	bioavailability ([1]; single 30 mg/kg IP)	AUC(0-t) ([1]; single 30 mg/kg IP, read-out: AUC0-24)	Cmax ([1]; single 30 mg/kg IP, read-out: Cmax)	half-life ([1]; single 30 mg/kg IP, read-out: t1/2 (converted))	drug response in control experiments [2]	chemical control of transgene (firefly luciferase) expression (in words) ([3]; 2K or 20K vg/cell, varying concentrations, 48 hours after CEM87 (72 hours post AAV infection))	earliest time of statistically significant increase of transgene (firefly luciferase) expression post CEM87 addition ([3]; 20K vg/cell, 200 nM CEM87)	time up to which effects on luciferase expression continue post CEM87 addition ([3]; 20K vg/cell, 200 nM CEM87)	time of highest fold change in luciferase expression after CEM87 dosage ([3]; 20K vg/cell, 200 nM CEM87, 48 hours after AAV infection)	time to reversibility of transgene expression after removal of CEM87 ([3]; 20K vg/cell, 200 nM CEM87 for 48 hours, then washout or washout with 100× more FK506)	effect on AAV transgene expression (in words) ([3]; 20K vg/cell, 200 nM CEM114, 48 hours)
COc1ccc2c(c1)C(c1ccc(Cl)cc1)=N[C@@H](CC(=O)NCc1cn(CCOCCOCCOCCNC(=O)CCSCCC[C@@H]3/C=C(\C)C[C@H](C)C[C@H](OC)[C@H]4O[C@@](O)(C(=O)C(=O)N5CCCC[C@H]5C(=O)O[C@H](/C(C)=C/[C@@H]5CC[C@@H](O)[C@H](OC)C5)[C@H](C)[C@@H](O)CC3=O)[C@H](C)C[C@@H]4OC)nn1)c1nnc(C)n1-2 [CEM87]	27500 ng·h/mL	~4 h	34100 ng/mL	~50%	114000 ng·h/mL	15500 ng/mL	4 h	no drug response	dose dependent chemical control	24 h	up to 96 hours	24 h	≤ 24 h	–
CO[C@H]1C[C@@H](C)C/C(C)=C/[C@@H](CCCSCCC(=O)NCCOCCOCCOCCn2cc(COc3ccc(CCc4nc5cc(-c6c(C)noc6C)ccc5n4CCN4CCOCC4)cc3F)nn2)C(=O)C[C@H](O)[C@@H](C)[C@@H](/C(C)=C/[C@@H]2CC[C@@H](O)[C@H](OC)C2)OC(=O)[C@@H]2CCCCN2C(=O)C(=O)[C@]2(O)O[C@H]1[C@@H](OC)C[C@H]2C [CEM114]	–	–	–	–	–	–	–	–	–	–	–	–	–	increase AAV transgene expression

From patent US20240238448A1, “USE OF CHEMICAL EPIGENETIC MODIFIERS TO MODULATE GENE […] VECTORS” (The University of North Carolina at Chapel Hill, priority 2021, published 2024)
